Data reported in patent publication US10597388B2, “Pyridazinone herbicides” (FMC CORPORATION, priority 2014, dated 2020).

Tests used:
Format in all cases: in vivo
[1] = test system: surinam grass (Brachiaria decumbens); test: Test E greenhouse herbicide test, pre- and postemergence; conditions: Preemergence
Text: (§1) Seeds of plant species selected from corn (Zea mays), soybean (Glycine max), velvetleaf (Abutilon theophrasti), lambsquarters (Chenopodium album), wild poinsettia (Euphorbia heterophylla), pigweed, palmer (palmer pigweed, Amaranthus palmeri), waterhemp (common waterhemp, Amaranthus rudis), surinam grass (Brachiaria decumbens), crabgrass, large (large crabgrass, Digitaria sanguinalis), crabgrass, Brazilian (Brazilian crabgrass, Digitaria horizontalis), panicum, fall (fall panicum, Panicum dichotomiflorum), foxtail, giant (giant foxtail, Setaria faberii), foxtail, green (green foxtail, Setaria viridis), goosegrass (Eleusine indica), johnsongrass (Sorghum halepense), ragweed (common ragweed, Ambrosia elatior), barnyardgrass (Echinochloa crus-galli), sandbur (southem sandbur, Cenchrus echinatus), arrowleaf sida (Sida rhombifolia), Italian ryegrass (Lolium multiflorum), dayflower (Virginia (VA) dayflower, Commelina virginica), field bindweed (Convolvulus arvensis), momingglory (Ipomoea coccinea), nightshade (eastern black nightshade, Solanum ptycanthum), kochia (Kochia scoparia), nutsedge, yellow (yellow nutsedge, Cyperus esculentus), horseweed (Conyza canadensis), and beggarticks (hairy beggarticks, Bidens pilosa), were planted into a silt loam soil and treated preemergence with test chemicals formulated in a non-phytotoxic solvent mixture which included a surfactant.
(§2) At the same time, plants from these crop and weed species and also waterhemp_RES1, (ALS & Triazine resistant common waterhemp, Amaranthus rudis), and waterhemp_RES2, (ALS & HPPD resistant common waterhemp, Amaranthus rudis) were planted in pots containing Redi-Earth® planting medium (Scotts Company, 14111 Scottslawn Road, Marysville, Ohio 43041) comprising spaghnum peat moss, vermiculite, wetting agent and starter nutrients were treated with postemergence applications of test chemicals formulated in the same manner. Plants ranged in height from 2 to 18 cm for postemergence treatments (1- to 4-leaf stage). Treated plants and controls were maintained in a greenhouse for 14 to 21 d, after which time all species were compared to controls and visually evaluated. Plant response ratings, summarized in Table E, are based on a scale of 0 to 100 where 0 is no effect and 100 is complete control. A dash (-) response means no test result.

[2] = test system: crabgrass, Brazilian (Brazilian crabgrass, Digitaria horizontalis); test: as above
Text: as §1, §2

kochia (Kochia scoparia) = test: as above
Text: as §1, §2

[3] = test system: Italian ryegrass (Lolium multiflorum); test: as above
Text: as §1, §2

[4] = test system: crabgrass, large (large crabgrass, Digitaria sanguinalis); test: as above; conditions: Preemergence
Text: as §1, §2

[5] = test system: nightshade (eastern black nightshade, Solanum ptycanthum); test: as above; conditions: Preemergence
Text: as §1, §2

[6] = test system: momingglory (Ipomoea coccinea); test: as above; conditions: Preemergence
Text: as §1, §2

[7] = test system: mustard, wild (wild mustard, Sinapis arvensis); test: Test D controlled growth environment herbicide test, pre- and postemergence; conditions: for Mustard, Wild plant response rating / Plant response rating (scale of 0 to 100), Mustard, Wild: 31 g ai/ha
In short: (§3)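 Pre-emergence: seeds sown in silt loam soil were sprayed with compound in a non-phytotoxic solvent mix containing surfactant. Post-emergence: plants at 2 to 18 cm (1- to 4-leaf stage) in peat moss/vermiculite medium got the same formulation. Visual 0–100 rating versus controls after 14 to 21 d.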

[8] = test system: buckwheat, wild (wild buckwheat, Polygonum convolvulus); test: as above; conditions: for Buckwheat, Wild plant response rating / Plant response rating (scale of 0 to 100), Buckwheat, Wild: 31 g ai/ha
In short: as §3

[9] = test system: ryegrass, Italian (Italian ryegrass, Lolium multiflorum); test: as above; conditions: for Ryegrass, Italian plant response rating / Plant response rating (scale of 0 to 100), Ryegrass, Italian: 31 g ai/ha
In short: as §3

[10] = 62 g ai/ha, scale 0 to 100 (0 no effect, 100 complete control)
[11] = 125 g ai/ha, scale 0 to 100 (0 no effect, 100 complete control)
[12] = 31 g ai/ha, scale 0 to 100, 0 no effect, 100 complete control
[13] = 250 g ai/ha, visual, scale 0 no effect to 100 complete control
[14] = 62 g ai/ha, Postemergence, scale 0 to 100 (0 no effect, 100 complete control)
[15] = 62 g ai/ha, Preemergence, scale 0 to 100 (0 no effect, 100 complete control)
[16] = 125 g ai/ha, Postemergence, scale 0 to 100 (0 no effect, 100 complete control)
[17] = 125 g ai/ha, Preemergence, scale 0 to 100 (0 no effect, 100 complete control)
[18] = 250 g ai/ha, Postemergence, scale 0 to 100 (0 no effect, 100 complete control)
[19] = Postemergence, 31 g ai/ha, visual, scale 0 no effect to 100 complete control
[20] = Preemergence, 31 g ai/ha, scale 0 to 100, 0 no effect, 100 complete control
[21] = Preemergence, 250 g ai/ha, visual, scale 0 no effect to 100 complete control
[22] = Postemergence, scale 0 to 100 (0 no effect, 100 complete control)
[23] = Postemergence, 125 g ai/ha, visual rating on scale 0 (no effect) to 100 (complete control), 14 to 21 d
[24] = Postemergence, 250 g ai/ha, scale 0 to 100 (0 no effect, 100 complete control)
[25] = Preemergence, 62 g ai/ha, scale 0 to 100 (0 no effect, 100 complete control)
[26] = Preemergence, 125 g ai/ha, scale 0 to 100 (0 no effect, 100 complete control)
[27] = Preemergence, 250 g ai/ha, scale 0 to 100, 0 no effect, 100 complete control
[28] = postemergence, 62 g ai/ha, scale 0 to 100, 0 no effect, 100 complete control
[29] = 16 g ai/ha, scale 0 to 100, 0 no effect, 100 complete control
[30] = Preemergence, 16 g ai/ha, scale 0 to 100, 0 no effect, 100 complete control

Cc1nn(C)c(=O)c(-c2ccc(Br)c3ccccc23)c1O [Compound 75]
Plant response rating, Surinam Grass [1, 10]: 35
Plant response rating, Surinam Grass [1, 11]: 60
Plant response rating, Surinam Grass [1, 12]: 5
Plant response rating, Surinam Grass [1, 13]: 90
Plant response rating, Crabgrass, Brazil [2, 14]: 40
Plant response rating, Crabgrass, Brazil [2, 15]: 20
Plant response rating, Crabgrass, Brazil [2, 16]: 50
Plant response rating, Crabgrass, Brazil [2, 17]: 90
Plant response rating, Crabgrass, Brazil [2, 18]: 50
Plant response rating, Crabgrass, Brazil [2, 19]: 40
Plant response rating, Crabgrass, Brazil [2, 20]: 0
Plant response rating, Crabgrass, Brazil [2, 21]: 90
Plant response rating, Kochia (kochia (Kochia scoparia); [14]): 98
Plant response rating, Kochia (kochia (Kochia scoparia); [15]): 100
Plant response rating, Kochia (kochia (Kochia scoparia); [16]): 100
Plant response rating, Kochia (kochia (Kochia scoparia); [17]): 100
Plant response rating, Kochia (kochia (Kochia scoparia); [18]): 100
Plant response rating, Kochia (kochia (Kochia scoparia); [19]): 90
Plant response rating, Kochia (kochia (Kochia scoparia); [20]): 98
Plant response rating, Kochia (kochia (Kochia scoparia); [21]): 100
Plant response rating, Ryegrass, Italian [3, 14]: 80
Plant response rating, Ryegrass, Italian [3, 15]: 100
Plant response rating, Ryegrass, Italian [3, 16]: 85
Plant response rating, Ryegrass, Italian [3, 17]: 100
Plant response rating, Ryegrass, Italian [3, 18]: 90
Plant response rating, Ryegrass, Italian [3, 19]: 75
Plant response rating, Ryegrass, Italian [3, 20]: 100
Plant response rating, Ryegrass, Italian [3, 21]: 100
Plant response rating, Crabgrass, Large [4, 10]: 0
Plant response rating, Crabgrass, Large [4, 11]: 0
Plant response rating, Crabgrass, Large [4, 12]: 0
Plant response rating, Crabgrass, Large [4, 13]: 30
Plant response rating, Nightshade [5, 10]: 0
Plant response rating, Nightshade [5, 11]: 90
Plant response rating, Nightshade [5, 12]: 0
Plant response rating, Nightshade [5, 13]: 100
Plant response rating, Morningglory [6, 10]: 30
Plant response rating, Morningglory [6, 11]: 60
Plant response rating, Morningglory [6, 12]: 0
Plant response rating, Morningglory [6, 13]: 100
Mustard, Wild plant response rating [7, 22]: 100
Plant response rating, Mustard, Wild [7, 23]: 100
Plant response rating, Mustard, Wild [7, 24]: 100
Plant response rating (scale of 0 to 100), Mustard, Wild ([7]; Preemergence): 55
Plant response rating, Mustard, Wild [7, 25]: 35
Plant response rating, Mustard, Wild [7, 26]: 100
Plant response rating, Mustard, Wild [7, 27]: 95
Plant response rating, Mustard, Wild [7, 28]: 100
Buckwheat, Wild plant response rating [8, 22]: 100
Plant response rating, Buckwheat, Wild [8, 23]: 100
Plant response rating, Buckwheat, Wild [8, 24]: 100
Plant response rating (scale of 0 to 100), Buckwheat, Wild ([8]; Preemergence): 0
Plant response rating, Buckwheat, Wild [8, 25]: 0
Plant response rating, Buckwheat, Wild [8, 26]: 0
Plant response rating, Buckwheat, Wild [8, 27]: 50
Plant response rating, Buckwheat, Wild [8, 28]: 100
Ryegrass, Italian plant response rating [9, 22]: 90
Plant response rating, Ryegrass, Italian [9, 23]: 95
Plant response rating, Ryegrass, Italian [9, 24]: 98
Plant response rating (scale of 0 to 100), Ryegrass, Italian ([9]; Preemergence): 95
Plant response rating, Ryegrass, Italian [9, 25]: 100
Plant response rating, Ryegrass, Italian [9, 26]: 100
Plant response rating, Ryegrass, Italian [9, 27]: 0
Plant response rating, Ryegrass, Italian [9, 28]: 95

COC(=O)Oc1c(C)nn(C)c(=O)c1-c1c(C)sc2ccc(C)cc12 [Compound 80]
Plant response rating, Surinam Grass [1, 10]: 20
Plant response rating, Surinam Grass [1, 11]: 75
Plant response rating, Surinam Grass [1, 29]: 0
Plant response rating, Surinam Grass [1, 12]: 10
Plant response rating, Crabgrass, Brazil [2, 15]: 90
Plant response rating, Crabgrass, Brazil [2, 17]: 100
Plant response rating, Crabgrass, Brazil [2, 30]: 65
Plant response rating, Crabgrass, Brazil [2, 20]: 75
Plant response rating, Kochia (kochia (Kochia scoparia); [15]): 100
Plant response rating, Kochia (kochia (Kochia scoparia); [17]): 100
Plant response rating, Kochia (kochia (Kochia scoparia); [30]): 25
Plant response rating, Kochia (kochia (Kochia scoparia); [20]): 90
Plant response rating, Ryegrass, Italian [3, 15]: 98
Plant response rating, Ryegrass, Italian [3, 17]: 98
Plant response rating, Ryegrass, Italian [3, 30]: 50
Plant response rating, Ryegrass, Italian [3, 20]: 70
Plant response rating, Crabgrass, Large [4, 10]: 35
Plant response rating, Crabgrass, Large [4, 11]: 35
Plant response rating, Crabgrass, Large [4, 29]: 0
Plant response rating, Crabgrass, Large [4, 12]: 0
Plant response rating, Nightshade [5, 10]: 100
Plant response rating, Nightshade [5, 11]: 98
Plant response rating, Nightshade [5, 29]: 75
Plant response rating, Nightshade [5, 12]: 75
Plant response rating, Morningglory [6, 10]: 70
Plant response rating, Morningglory [6, 11]: 75
Plant response rating, Morningglory [6, 29]: 0
Plant response rating, Morningglory [6, 12]: 65
Mustard, Wild plant response rating [7, 22]: 35
Plant response rating, Mustard, Wild [7, 23]: 70
Plant response rating, Mustard, Wild [7, 24]: 100
Plant response rating (scale of 0 to 100), Mustard, Wild ([7]; Preemergence): 0
Plant response rating, Mustard, Wild [7, 25]: 0
Plant response rating, Mustard, Wild [7, 26]: 0
Plant response rating, Mustard, Wild [7, 27]: 0
Plant response rating, Mustard, Wild [7, 28]: 50
Buckwheat, Wild plant response rating [8, 22]: 100
Plant response rating, Buckwheat, Wild [8, 23]: 100
Plant response rating, Buckwheat, Wild [8, 24]: 100
Plant response rating (scale of 0 to 100), Buckwheat, Wild ([8]; Preemergence): 0
Plant response rating, Buckwheat, Wild [8, 25]: 25
Plant response rating, Buckwheat, Wild [8, 26]: 20
Plant response rating, Buckwheat, Wild [8, 27]: 20
Plant response rating, Buckwheat, Wild [8, 28]: 100
Ryegrass, Italian plant response rating [9, 22]: 85
Plant response rating, Ryegrass, Italian [9, 23]: 98
Plant response rating, Ryegrass, Italian [9, 24]: 100
Plant response rating (scale of 0 to 100), Ryegrass, Italian ([9]; Preemergence): 90
Plant response rating, Ryegrass, Italian [9, 25]: 90
Plant response rating, Ryegrass, Italian [9, 26]: 95
Plant response rating, Ryegrass, Italian [9, 27]: 100
Plant response rating, Ryegrass, Italian [9, 28]: 95
